The text below walks through data of patent US20250057808A1, “COMPOSITION COMPRISING BETA LACTAM FOR TREATING ALCOHOL DEPENDENCE AND ALCOHOL ASSOCIATED DISEASES OR CONDITIONS” (Temple University of the Commonwealth System of Higher …, priority 2023, published 2025).

Structures are written as SMILES. Entries after “also recorded” stand apart in the source; their conditions may differ.

One data set deals with mGluR1. As to the kind of experiment: Western blot mGluR1 expression in NAc-core and NAc-shell. It is filed as in vivo, P rats. Conditions: MC-100093 50 mg/kg or ceftriaxone 200 mg/kg i.p. 5 days; among all groups. The method, then: (§1) We used micro-punch procedure to dissect the subregions of the NAc such as NAc-core and NAc-shell as well as the subregions of prefrontal cortex such as infralimbic (IL) and prelimbic (PL) from the brain on day 6 after the last injection day. P rats were removed from the cage and rapidly euthanized by CO2 inhalation followed by rapid decapitation with a guillotine. Brains were isolated and immediately frozen on dry ice and stored at −80° C. The stereotaxic coordinates provided by Paxinos and colleague's rat brain stereotactic atlas was used to isolate NAc-core and NAc-shell using a cryostat apparatus (−20° C.), which then kept at −80° C. for later western blot analyses.
(§2) Western Blot assay was performed to measure changes in the expression of GLT-1, xCT, mGluR1, mGluR5, PPAR-α, PPARγ, GAPDH and β-tubulin in the NAc-core and NAc-shell as described in previous publications. A lysis buffer containing protease and phosphatase inhibitors was used to generate a homogenate of liver, Nac-core, and Nac-shell samples. The amount of protein was quantified using a detergent compatible protein assay (Bio-Rad, Hercules, CA, USA) for each sample. Samples were mixed with laemmli dye and loaded with equal amounts on polyacrylamide gels (10%), which separated the proteins using electrophoresis. After that, polyvinylidene difluoride (PVDF) membranes were used to transfer the proteins electrophoretically from the gels. Membranes were incubated in 5% free-fat milk in Tris-buffered saline with Tween-20 (TBST) for 30-60 minutes at room temperature. Membranes were then incubated with appropriate primary antibodies overnight at 4° C.: rabbit anti-GLT-1 (1:5000, Abcam, ab41621), rabbit anti-xCT (1:2000, Abcam, ab175186), rabbit anti-mGluR1 (1:1000, Abcam, ab82211), rabbit anti-mGluR5 (1:1000, Abcam, ab76316), rabbit anti-PPAR-α (1:1000, Abcam, ab24509), and rabbit anti-PPARγ (1:1000, Abcam, ab209350). Mouse anti-β-tubulin (1:1000; BioLegend) was used as a loading control antibody for the brain samples and rabbit anti-GAPDH (1:5000; cell signaling) was used as a loading control antibody for the liver samples. Membranes were washed five times on the next day with TBST followed by incubation with appropriate secondary antibody (1:5000) for 90 minutes at room temperature. Chemiluminescent reagents (Super Signal West Pico, Pierce Inc.) were used to detect the proteins using a GeneSys imaging system to develop the digitized blot images. Water-control group data were represented as 100% and all other values were expressed relative to control group to detect changes in the expression of the protein of interest in the brain and liver samples.
(§3) All statistical analyses were conducted with Graphpad Prism software, with p-values of 0.05 or less being statistically significant. […]
Background: A western blot detects proteins with antibodies after separation by electrophoresis.

Data set [1] deals with GLT-1. As to the kind of experiment: Western blot GLT-1 expression in NAc-core, NAc-shell and liver (50 mg/kg study). Format: in vivo, P rats. Conditions: MC-100093 50 mg/kg or ceftriaxone 200 mg/kg i.p. 5 days. The procedure: as §1, §2
(§4) All statistical analyses were conducted with Graphpad Prism software, with p-values of 0.05 or less being statistically significant. We performed a two-way (mixed model) ANOVA followed by Bonferroni multiple comparison post-hoc test to analyze 24 h ethanol consumption, 24 h water consumption, and daily body weight. For the Western blot and oil red O staining analysis, we performed one-way ANOVA with Newman-Keuls as a post hoc multiple comparison test to measure differences between groups as a percentage (relative to control values).

Data set [2] has as its system xCT. Conditions: earlier studies, chronic ethanol; cited from earlier work.
The subject of the next data set is fat content in the liver. As to the kind of experiment: Liver Oil Red O staining (fat content). As to conditions: MC-100093 50 mg/kg or ceftriaxone 200 mg/kg i.p. 5 days, control, ethanol, ethanol-CEF groups. Format: in vivo, P rats. The method, then: To measure the fat content in the liver sections, we used Oil Red O (Sigma, CAS Number 1320-06-5) staining on 10 μm thick formalin-fixed liver sections and placed in slides for further staining. The slides were stained with freshly prepared Oil Red O working solution 15 minutes then rinsed with 60% isopropanol. Slides were then rinsed with distilled water and mounted in aqueous mounting media and prepared for imaging. The degree of Oil Red O staining was determined at 20× magnification using a color video camera attached to an Olympus VS120 slide scanning microscope. Olympus OlyVIA software was used to analyze the images. The lipid droplets were quantified using Image J pro (NIH). Data are presented as the mean+SEM of the Oil Red O staining for each group.
as §4

The test system of a further data set is mGluR5. As to the kind of experiment: Western blot mGluR5 expression in NAc-core and NAc-shell. As to conditions: MC-100093 50 mg/kg or ceftriaxone 200 mg/kg i.p. 5 days. Format: in vivo, P rats. The method, then:
as §1, §2, §3

A further data set deals with PPAR-γ. As to the kind of experiment: Western blot PPAR-γ expression in liver. Format: in vivo, P rats. As to conditions: MC-100093 50 mg/kg or ceftriaxone 200 mg/kg i.p. 5 days; between all groups. The procedure: Western Blot assay was performed to measure changes in the expression of GLT-1, xCT, mGluR1, mGluR5, PPAR-α, PPARγ, GAPDH and β-tubulin in the NAc-core and NAc-shell as described in previous publications. A lysis buffer containing protease and phosphatase inhibitors was used to generate a homogenate of liver, Nac-core, and Nac-shell samples. The amount of protein was quantified using a detergent compatible protein assay (Bio-Rad, Hercules, CA, USA) for each sample. Samples were mixed with laemmli dye and loaded with equal amounts on polyacrylamide gels (10%), which separated the proteins using electrophoresis. After that, polyvinylidene difluoride (PVDF) membranes were used to transfer the proteins electrophoretically from the gels. Membranes were incubated in 5% free-fat milk in Tris-buffered saline with Tween-20 (TBST) for 30-60 minutes at room temperature. Membranes were then incubated with appropriate primary antibodies overnight at 4° C.: rabbit anti-GLT-1 (1:5000, Abcam, ab41621), rabbit anti-xCT (1:2000, Abcam, ab175186), rabbit anti-mGluR1 (1:1000, Abcam, ab82211), rabbit anti-mGluR5 (1:1000, Abcam, ab76316), rabbit anti-PPAR-α (1:1000, Abcam, ab24509), and rabbit anti-PPARγ (1:1000, Abcam, ab209350). […]

In another data set the test system is PPAR-α. As to the kind of experiment: Western blot PPAR-α expression in NAc-core, NAc-shell and liver. Conditions: MC-100093 50 mg/kg or ceftriaxone 200 mg/kg i.p. 5 days; among all groups. Format: in vivo, P rats. The procedure: as §1, §2, §3
Data set [3] has as its system GLT-1. Conditions: earlier studies, chronic ethanol; cited from earlier work.
For data set [4] the following is noted: earlier and literature studies in rats; cited from earlier work.
Data set [5] can be described thus: Ethanol drinking paradigm, three-bottle choice (MC-100093 50 mg/kg vs ceftriaxone 200 mg/kg). Format: in vivo, P rats. The method, then: P rats were received from Indiana University School of Medicine (Indianapolis, IN, USA), and were housed in a 21° C. on a 12/12 h light/dark cycle-maintained room where they had free access to water and food. All experimental procedures were approved by the Institutional Animal Care and Use Committee (IACUC) of The University of Toledo, in accordance with the guidelines governing the use of animals in research of the National Institutes of Health as described in the Guidefor the Care and Use of Laboratory Animals.
We used an ethanol drinking paradigm as described previously by Alhaddad, et al. (2014). Briefly, animals started the experimental drinking procedure at age of 90 days. The animals had five weeks of exposure to continuous three-bottle choice drinking, 0%, 15% and 30%, v/v ethanol in water, available concurrently. Daily measurement of ethanol intake was performed (g of ethanol intake/kg of body weight/day). We measured the baseline ethanol drinking by average the intake during the last three weeks. Three groups of P rats (n=8-9/group) exposed to the five weeks ethanol exposure. At week 6, rats in each group received daily intraperitoneal injection of either MC-100093 at dose of 50 mg/kg (Ethanol-MC group), Ceftriaxone at dose of 200 mg/kg (Ethanol-CEF group, which also serves as positive control), or equivolume of saline vehicle (Ethanol group) for five days. This paradigm results in pharmacologically relevant blood alcohol concentration (50-200 mg %). Following the criteria for the development of ethanol dependence, rats whose average ethanol intake <4 g/kg/day were excluded from the study. Beside the ethanol exposed groups, another group of P rats (n=8) exposed to only water and food throughout the exposure procedures (control group).
as §4

The subject of data set [6] is xCT. As to the kind of experiment: Western blot xCT expression in NAc-core, NAc-shell and liver (50 mg/kg study). It is filed as in vivo, P rats. Conditions: MC-100093 50 mg/kg or ceftriaxone 200 mg/kg i.p. 5 days. The procedure: as §1, §2, §4
The mark [7] stands for this setting: ceftriaxone 200 mg/kg i.p. vs MC-100093 50 mg/kg i.p., days 2 through 5.

Consider `CO/N=C(\C(=O)N[C@@H]1C(=O)N2C(C(=O)O)=C(CSc3nc(=O)c(=O)[nH]n3C)CS[C@H]12)c1csc(N)n1` [Ceftriaxone, reference compound], for which, in the data set with mGluR1, the “Protein expression of mGluR1 in the NAc-core” value is “non-significant difference; also recorded: no significant difference” and the “Protein expression of mGluR1 in the NAc-shell” value is “non-significant differences; also recorded: no significant difference”. Also, the “Protein expression of GLT-1 in the liver” value in the data set on GLT-1 [1] was “normalized GLT-1 level; also recorded: normalize the PPAR-α and GLT-1 levels in the liver”. Besides, the “Protein expression of GLT-1 in the NAc-core” value with GLT-1 [1] (among Control, Ethanol, Ethanol-MC, Ethanol-CEF) was “non-significant difference; also recorded: no significant difference”. The “Protein expression of GLT-1 in the NAc-shell” value in the data set with GLT-1 [1] (vs Ethanol group) is reported as “significantly increased”. Besides, the “xCT expression in the NAc” value in the data set with xCT [2] was “attenuation of downregulation of GLT-1 as well as xCT expression; also recorded: upregulated GLT-1 and xCT expression in the NAc”. For the same compound, in the data set with fat content in the liver, the “Liver fat content (Oil Red O stained fat droplets)” value is “no significant difference in fat content between control, ethanol-MC, and ethanol-CEF groups; also recorded: significantly higher fat droplet content in ethanol group (p<0.05) compared to control, ethanol-MC or ethanol-CEF groups; also recorded: alleviated the liver steatosis”. In addition, in the data set on mGluR5 (among all groups), the “Protein expression of mGluR5 in the NAc-core” value is listed as “non-significant difference; also recorded: no significant difference”. Besides, the “Protein expression of mGluR5 in the NAc-shell” value in the data set on mGluR5 (vs control or ethanol groups) is “no significant change in the expression of mGluR5; also recorded: significantly downregulated in ethanol group compared to control, Ethanol-MC (50 mg/kg), and Ethanol-CEF (200 mg/kg) groups; also recorded: normalizing levels of mGluR5”. Also, the “Protein expression of PPAR-γ in the liver” value with PPAR-γ is recorded as “not changed significantly”. In the data set on PPAR-α, the “Protein expression of PPAR-α in the NAc-core” value is listed as “non-significant differences; also recorded: did not detect significant changes” and the “Protein expression of PPAR-α in the NAc-shell” value is given as “non-significant differences; also recorded: did not detect significant changes”. Besides, the “GLT-1 expression in the NAc” value with GLT-1 [3] was “attenuation of downregulation of GLT-1 as well as xCT expression; also recorded: upregulated GLT-1 and xCT expression in the NAc”. Besides, in data set [4], the “Ethanol drinking behavior / consumption” value is listed as “decreased ethanol consumption in rats; also recorded: attenuated ethanol drinking behaviors”. In data set [5] (MC-100093 50 mg/kg i.p. or ceftriaxone 200 mg/kg i.p. 5 days), the “Body weight (grams)” value is listed as “Neither MC-100093 (50 mg/kg, i.p.) nor Ceftriaxone (200 mg/kg, i.p.) treatment has significant effect; also recorded: no significant effects”. In data set [5] (MC-100093 50 mg/kg i.p. or ceftriaxone 200 mg/kg i.p. 5 days, vs Ethanol-Saline group (MC-100093: at day 5 only)), the “Water intake (mL/day)” value is “significant increase in water consumption from day 1 through day 5; also recorded: significant increase in water consumption from day 2 through day 5”. For the same compound, the “Ethanol consumption (g/kg of average body weight/24 hr)” value in [5] (P rats after 5 wk ethanol, MC-100093 50 mg/kg i.p. or ceftriaxone 200 mg/kg i.p. daily 5 days, vs Ethanol-Saline group) is given as “significant decrease in ethanol consumption from day 1 through day 5; also recorded: significantly reduced ethanol consumption from day 2 through day 5; also recorded: attenuated ethanol drinking behavior”. Moreover, in data set [5] (setting [7]), the “Ethanol consumption, Ethanol-Ceftriaxone compared to Ethanol-MC group” value is “significantly lower; also recorded: attenuate drinking behavior to a greater extent than MC-100093” and the “Water consumption, Ethanol-Ceftriaxone compared to Ethanol-MC group” value was “significantly higher”. For the same compound, in the data set on xCT [6] (among all groups), the “Protein expression of xCT in the NAc-core” value is on record as “non-significant difference; also recorded: no significant difference”. Besides, the “Protein expression of xCT in the liver” value with xCT [6] (between all groups) is given as “no significant differences”. The “Protein expression of xCT in the NAc-shell” value with xCT [6] (vs Ethanol group) is reported as “significantly higher level of xCT; also recorded: significantly increased xCT expression”.

As to `Cc1ccc(C)c(OCCCC(C)(C)C(=O)O)c1` [Gemfibrozil], in data set [4], the “Ethanol drinking behavior / consumption” value was “reduced ethanol drinking behavior in rats”.

Turning to `CC1CC=NN1C(=O)c1cccnc1` (centres unmarked) [MS-153], the “xCT expression in the NAc” value in the data set with xCT [2] is “upregulated GLT-1 and xCT expression in the NAc”. In addition, in the data set with GLT-1 [3], the “GLT-1 expression in the NAc” value is “upregulated GLT-1 and xCT expression in the NAc”. In addition, in [4], the “Ethanol drinking behavior / consumption” value is “attenuated ethanol drinking behaviors”.
